These results are taken from patent US9744165B2, “Method for treating hypertension” (TSH Biopharm Corporation Ltd., priority 2010, dated 2017).

Assay [1] has as its system spontaneous hypertensive rats (SHR). The assay is described as follows: Anti-hypertensive efficacy of monotherapy and combined therapy in spontaneous hypertensive rats (tail-cuff blood pressure). In kind it is in vivo, rat. Here is the method:
An in vivo study was conducted to measure and compare the anti-hypertensive efficacy and tolerability of dextromethorphan and amlodipine in monotherapy and combined therapy in spontaneous hypertensive rats, an animal model for hypertension. The same study can be performed with other NADPH oxidase inhibitor and CCB.
Aged 18-week male normotensive Wistar Kyoto (WKY) and spontaneous hypertensive rats (SHR) were used in this study.
Untreated WKY and SHR were compared with SHR treated with amlodipine (1, 5 mg/kg/day) or dextromethorphan (1, 5, 25 mg/kg/day) and fix dose combination (AM+DM) using a matrix combination of above doses for 4 weeks. All the treatment groups are listed in Table 1, including G1˜G12 for SHR and G0 for WKY as a control.
Control rats (G0 and G1) received 1% solution of methylcellulose (1 ml/kg) by a gavage as a vehicle. AM and DM were suspended in 1% solution of methylcellulose and administered by a gavage in a 1 ml/kg volume. All compounds were administered for 4 weeks. Arterial blood pressure measurement and blood sampling were carried out before treatment, and after the second and forth week of drug administration.
Arterial blood pressure was measured in conscious rats with an automatic sphygmomanometer, using tail-cuff method. Before the measurements, the animals were placed inside a warming chamber (about 34° C.) for 30 min. The aim of the procedure is to calm the animals and dilate the tail blood vessels. Arterial blood pressure was measured at least three times for each animal. Changes in pressure are expressed as the percentage of baseline values.
Arterial blood pressure and blood sampling will be measured before treatment, and after the second and forth week of drug administration (FIG. 6).
Results are expressed as mean±SD. The normality of distribution was checked by means of Kolmogorov-Smirnov test with Lilliefors test. The statistical evaluation was performed using analysis of variance (ANOVA) and post hoc comparisons were performed by means of Least Significant Differences (LSD) test. If the data were not normally distributed, statistical evaluation was performed by using ANOVA (Kruskall-Wallis) and Mann-Whitney U test. Differences were considered significant when p<0.05.

Assay [2] concerns apolipoprotein E (apoE)-deficient mice. The note with it: cited from earlier work.
For assay [3], the system named is animal models of hypertension. The note with it: cited from earlier work.

With `CCOC(=O)C1=C(COCCN)NC(C)=C(C(=O)OC)C1c1ccccc1Cl` (stereo not shown) [AM, 3-ethyl 5-methyl 2-[(2-aminoethoxy)methyl]-4-(2-chlorophenyl)-1,4-dihydro-6-m ethylpyridine-3,5-dicarboxylate], the “blood pressure lowering effect (SBP, DBP, MBP)” value in assay [1] (AM alone at 1 and 5 mg/kg/day by gavage for 4 weeks, FIGS. 2a-d) is recorded as “resulted in lowering of the blood pressure”. The “dosage response of blood pressure lowering” value in assay [1] (AM alone, 1 vs 5 mg/kg/day) is given as “more pronounced with the higher dose”.

Take `COc1ccc2c(c1)[C@]13CCCC[C@@H]1[C@H](C2)N(C)CC3` [DM, (+)-3-methoxy-17-methyl-9α,13α,14α-morphinan]: in assay [2] (aorta and carotid artery of apoE-deficient mice), the superoxide production result is “decreases superoxide production”. Further, the “oxidative stress, atherosclerosis and neointima formation” value in assay [2] (mice, through direct inhibition of NADPH oxidase) is “reduces oxidative stress and inhibits atherosclerosis and neointima formation”. Besides, in assay [1] (DM alone at 1, 5 and 25 mg/kg/day by gavage for 4 weeks, FIGS. 1a-d), the “blood pressure lowering effect (SBP, DBP, MBP)” value was “resulted in lowering of the blood pressure”. Besides, the “dosage response of blood pressure lowering” value in assay [1] (DM alone, 1 vs 5 vs 25 mg/kg/day) is listed as “no clear dosage response was observed”.

For `COc1cc(C(C)=O)ccc1O` [apocynin], in assay [3], the blood pressure entry is given as “decrease blood pressure”.
